Assay results reported in patent US10123904B2, “Preservative removal from eye drops” (University of Florida Research Foundation, Inc., priority 2014, dated 2018).
Structures can show the parent of a compound that is named as a salt. Where two headings read alike, the source gives them in different places. Marks after values point to notes of the source that are not given here. Blank lines part the entries; values can stand above or below the molecule they belong to.

What was measured:
[1] = Partition coefficient of drugs and BAK in macroporous pHEMA gel; type: physicochemical; details: for Partition coefficient in macroporous pHEMA gel: 250 mg gel soaked in 12 mL drug or BAK solution in PBS, 15 days, mean ± SD, n = 3; for Partition coefficient smaller than that of BAK: macroporous pHEMA gel
Protocol: As indicated above, the absorption percentage of hydrophilic drug is small, whereas a significant amount of hydrophobic drug is uptake by the macroporous pHEMA gel. The high affinity of hydrophobic drug to the gel can be determined by measuring the partition coefficient of the drug in the gel. To measure the partition coefficient, a piece of macroporous pHEMA gel of 250 mg was soaked in 12 mL of drug or BAK solution. After 15 days of soaking, the concentration of the drug or BAK solution was measured by using UV-Vis spectrophotometry. The drug or BAK concentration after soaking indicated the amount of drug or BAK in reference to the initial concentration is that absorbed into the gel. The partition coefficient of timolol and dorzolamide in macroporous pHEMA gel is roughly 15 times smaller than that of BAK, which is excellent separation efficiency. In contrast, the partition coefficients of latanoprost and BAK are pretty high and the separation efficiency of the gel for this mixture is poor.

[2] = BAK/drug removal by macroporous pHEMA gel plug packed in syringe, 10 consecutive passes; type: physicochemical; details: for Drug adsorption percentage: first pass through the 10th pass, macroporous pHEMA gel; for Percentage removed/absorbed after passing through plug: 2.5 mL through 5 mm macroporous pHEMA gel, 1 cm syringe
Protocol: The four drugs were dissolved in PBS and mixed with BAK individually. The macroporous pHEMA hydrogel prepared as above, was used as the BAK removal filter and packed into the syringe, as described above. The experimental setup is that of FIG. 3. […] The solution that passed through the filter plug was collected and the concentration of drug/BAK was determined by measuring the UV-Vis spectra. The measured UV spectrum was a linear combination of the testing drug and BAK and thus, the individual concentration of the drug and BAK could be determined by applying a least square fit method as described in Kim et al. Int. J.

[3] = BAK/drug removal by crushed macroporous pHEMA particles packed in syringe, passes separated by 24 hours; type: physicochemical
Protocol: Macroporous pHEMA hydrogel as prepared above was dried in the oven of 80° C. and crushed into particles and the particles packed into the syringe. Two pieces of filter papers were placed at the bottom of the syringe to prevent the packing particles from leaking out. Particles facilitate packing of a hydrogel into the neck of the eye drop bottle where packing is amenable to high-throughput industrial scale loading of gel filters. […] The process was timed using a stopwatch from the moment of placing the weight to the last drop entered the beaker. The weight of the collected solution in the beaker was measured to calculate the flow rate through the pHEMA particles. […] The UV spectrum of the collected solution was measured and the individual concentration of the drug and BAK were determined by a least square fit method as described in Kim et al., Int. J. […] After each measurement, the bottom outlet of the syringe was sealed with parafilm to prevent dehydration of the packed pHEMA particles in the manner equivalent to sealing the eye drop bottle with the cap after use.

[4] = Partition coefficient in pHEMA particles prepared using SR9035 as cross-linker; type: physicochemical; details: 100 mg particles soaked in 3.5 mL solution, 9 days
Protocol: The partition coefficients of timolol, CMC and BAK in pHEMA particles prepared using SR9035 as cross-linker was measured. pHEMA particles (100 mg) were soaked in 3.5 mL of timolol, CMC and BAK solution, which concentration was 0.08 mg/mL, 0.5% and 2.4 mg/mL, respectively. After 9 days of soaking, the concentration of the drug or BAK solution was measured by using UV-Vis spectrophotometry. The drug or BAK concentration after soaking indicated the amount of drug or BAK that absorbed into the gel relative to the initial concentration. The partition coefficient of timolol and CMC in pHEMA particles is much smaller than that of BAK, and should have excellent separation efficiency.

[5] = Timolol/BAK separation by heat-initiated pHEMA particles in eye drop bottle prototype; type: physicochemical
Protocol: FIG. 24 indicates the percentages of BAK and timolol that were absorbed after the mixture in solution was passed through the heat-initiated pHEMA particles, shown in FIG. 18. […] The hydraulic permeability of the packing particles is 0.0459 Darcy which was measured as described, above. […] The size of the particles prepared by UV or heat-initiated polymerization is similar. […] The drug/BAK solution was injected into the prototype bottle with a syringe. […] The UV spectrum of the outlet solution was measured and the individual concentration of the drug and BAK was determined by a least square fit method as described in Kim et al., Int. J.

[6] = Timolol/BAK separation by pHEMA particles with SR9035 cross-linker in eye drop bottle prototype; type: physicochemical
Text: (§1) More rigid and larger size particles create a larger void space for fluid to flow and improved hydraulic permeability. […] This would be undesirable because the plug is drug at the time of the instillation of the first drop but then could be partially or fully hydrated for subsequent instillations, depending on whether the plug retains the fluid in the interim time between successive instillations. […] During the UV curing, the mixture was continuously stirred by a 35×6 mm magnetic stirring bar at 70 rpm. In addition, the petri dish was covered to avoid water evaporation and oxygenation. After polymerization, the pHEMA gel were separated from the solution by vacuum filtration method and washed with a large quantity of DI water to remove the unreacted monomers and other impurities. The pHEMA gel was then dried in an oven of 80° C. and crushed into particles in a mortar. Selectivity of the separation of BAK from timolol was measured. […] A constant pressure drop was applied across the packed particles to maintain a constant flow rate through the plug. […] The UV spectrum of the outlet solution was measured and the concentrations of the drug and BAK were determined by the least square fit method described in Kim et al., Int. J. […] The tip of the prototype bottle was sealed with parafilm. […] The step was repeated 10 times over a total of 10 days.

[7] = Timolol/BAK separation by pHEMA particles with SR454HP cross-linker in eye drop bottle prototype; type: physicochemical
Text: as §1

[8] = Timolol/BAK separation by UV-initiated pHEMA particles (EGDMA) in eye drop bottle prototype; type: physicochemical
Text: The sodium chloride promoted phase separation of the mixture. Small globules containing HEMA monomer and EGDMA was formed by continuously stirring the system at high rpm. […] In addition, the petri dish was covered to avoid water evaporation and oxygenation. After the polymerization, the pHEMA particles were separated from the solution by vacuum filtration method and washed with a large quantity of DI water to remove the unreacted monomers and other impurities. The particles were then dried in an oven of 80° C. […] The synthesized particles were packed in the prototype bottle and tested for their selectivity of separation of BAK from timolol. […] The drug/BAK solution was injected into the prototype bottle with a syringe. A clip was applied to the bottle to impose a constant pressure drop. […] The UV spectrum of the outlet solution was measured and the concentrations of the drug and BAK were determined by the least square fit method described in Kim et al., Int. J. Pharm., 2008, Apr. 2; 353(1-2):205-22. Five samples were successively removed through the plug.

[9] = Latanoprost/BAK separation by crushed macroporous pHEMA particles in eye drop bottle prototype; type: physicochemical; details: all 10 runs over 10 days; 1.5 mL, 8 mm plug, particles pre-equilibrated with latanoprost
Protocol: The crushed macroporous pHEMA particles were prepared as described above. The particles were packed in the eye drop bottle prototype (FIG. 19) to test its selectivity of separation of BAK from latanoprost. The concentration of latanoprost and BAK prepared for the testing were both 0.03 mg/mL with PBS as the solvent. The drug/BAK solution was injected into the prototype bottle with a syringe. A clip was clipping on the bottle to create a constant pressure drop across the packing pHEMA particles of 8 mm in length. A volume of 1.5 mL of the drug/BAK solution was passed through the filter by squeezing the bottle. The UV spectrum of the outlet solution was measured and the individual concentration of the drug and BAK was determined by a least square fit method as described in Kim et al., Int. J. Pharm., 2008, Apr. 2; 353(1-2):205-22. The tip of the prototype bottle was sealed with parafilm. After 24 hours, another 1.5 mL drug/BAK solution was removed through the same filter and again to measure the concentrations of the drug and BAK. The step was repeated 10 times over a total of 10 days.

[10] = Binding of BAK and drugs to pHEMA matrix (general statement); type: physicochemical
[11] = 3 consecutive runs; hydrogel treated with 1% MAA
Protocol: The hydrogel was packed into the syringe as BAK removal filter and its separation efficiency of BAK from dexamethasone was tested in the same manner as the copolymer.

[12] = Partition coefficient of BAK in pHEMA particles prepared by heat-initiated polymerization; type: physicochemical

Partition coefficient in macroporous pHEMA gel [1]: 33.53 ± 1.31
Molecule: C[C@@H]1C[C@H]2[C@@H]3CCC4=CC(=O)C=C[C@]4(C)[C@@]3(F)[C@@H](O)C[C@]2(C)[C@@]1(O)C(=O)CO [Dexamethasone, dexamethasone]

Partition coefficient in macroporous pHEMA gel [1]: 7.59 ± 0.56 | Partition coefficient smaller than that of BAK [1]: roughly 15 times | Drug adsorption percentage [2]: about 5%
Molecule: CCN[C@H]1C[C@H](C)S(=O)(=O)c2sc(S(N)(=O)=O)cc21 [Dorzolamide, dorzolamide hydrochloride]

Partition coefficient in macroporous pHEMA gel [1]: 90.18 ± 1.36 | Percentage removed/absorbed after passing through plug ([2]; 10th pass): 30% | Percentage removed/absorbed after passing through plug ([2]; first run): 90% | Portion of drug absorbed ([3]; particles pre-equilibrated with the corresponding drug solution): only a very small portion
Molecule: CC(C)OC(=O)CCC/C=C\C[C@@H]1[C@@H](CC[C@@H](O)CCc2ccccc2)[C@H](O)C[C@@H]1O [Latanoprost, latanoprost]

Partition coefficient in macroporous pHEMA gel [1]: 6.49 ± 0.37 | Partition coefficient smaller than that of BAK [1]: roughly 15 times | Partition coefficient in pHEMA particles prepared by using SR9035 as cross-linker [4]: 5.59 ± 0.13^a | Drug adsorption percentage [2]: about 5% | Percentage removed ([5]; 1st run): About 17% | Percentage removed ([5]; 10th run): about 3% | Percentage removed ([6]; 1st run): About 25% | Amount removed ([6]; after the 5th run): negligible | Percentage removed ([7]; 1st run): About 18% | Amount removed ([7]; 10th run): negligible | Percentage removed ([8]; each of the 5 runs): about 1.5%
Molecule: CC(C)(C)NC[C@H](O)COc1nsnc1N1CCOCC1 [Timolol, timolol maleate]

Molecule: Benzalkonium chloride [BAK]
Percentage of BAK removed [9]: ~100% | Partition coefficient in pHEMA particles prepared by using SR9035 as cross-linker [4]: ~300 | Adsorption time on pHEMA ([10]; compared with transit time through plug): < 3 s | Partition coefficient into the pHEMA matrix ([10]; depending on BAK concentration and structure of the pHEMA matrix): 100-500 | Percentage removed/absorbed after passing through plug ([2]; 10th pass): 70-80% | Percentage removed/absorbed after passing through plug ([2]; first run): 100% | Percentage of BAK removed [11]: ~100% | Percentage removed ([5]; each of 10 passes carried out successively, 1.5 mL, 8 mm plug): ~100% | Percentage removed ([6]; 10th run): about 95% | Percentage removed ([6]; first 6th runs, 1.5 mL daily, 1.8 cm plug): ~100% | Partition coefficient of BAK in pHEMA particles prepared by heat-initiated polymerization [12]: 200-250 | Percentage of BAK removed ([3]; all 10 passes, each separated by 24 hours, regardless of the drug in the solution): ~100% | Percentage removed ([7]; after the 5th run): about 90% | Percentage removed ([7]; first 3-5th runs, 1.5 mL daily, 1.8 cm plug): ~100% | Percentage removed ([8]; 5th run, 1.5 mL, 8 mm plug): 30% | Percentage removed ([8]; first pass, 1.5 mL, 8 mm plug): Roughly 50%
